This note sets out measurements from patent US20170334891A1, “ENHANCER OF ZESTE HOMOLOG 2 INHIBITORS” (GLAXOSMITHKLINE INTELLECTUAL PROPERTY (NO.2) LIMITED, priority 2014, published 2017).

The target in the test is T1, EZH2 within the PRC2 complex (Homo sapiens, UniProt Q15910).
T1 construct: FLAG; made in house; host or cells: Sf9 cells
Description: EZH2 methyltransferase scintillation proximity assay (SPA). The note with it: Human PRC2 5 member complex (FLAG-EZH2, EED, SUZ12, RbAp48, AEBP2), 1 nM enzyme, biotinylated histone H3K27 peptide, 3H-SAM, 60 min at room temperature. It counts as biochemical. How it is done: Compounds contained herein were evaluated for their ability to inhibit the methyltransferase activity of EZH2 within the PRC2 complex. Human PRC2 complex was prepared by co-expressing each of the 5 member proteins (FLAG-EZH2, EED, SUZ12, RbAp48, AEBP2) in Sf9 cells followed by co-purification. Enzyme activity was measured in a scintillation proximity assay (SPA) where a tritiated methyl group is transferred from 3H-SAM to a lysine residue on a biotinylated, unmethylated peptide substrate derived from histone H3. The peptides were captured on streptavidin-coated SPA beads and the resulting signal was read on a ViewLux plate reader.
• 1. Prepare 10 mM stock of compounds from solid in 100% DMSO. • 2. Set up an 11-point serial dilution (1:4 dilution, top concentration 10 mM) in 100% DMSO for each test compound in a 384 well plate leaving columns 6 and 18 for DMSO controls. • 3. Dispense 10 nL of compound from the dilution plate into reaction plates (Corning, 384-well polystyrene NBS, Cat#3673).
Prepare the following solutions: • 1. 1× Base Buffer, 50 mM Tris-HCl, pH 8, 2 mM MgCl2: Per 1 L of base buffer, combine 1 M Tris-HCl, pH 8 (50 mL), 1 M MgCl2 (2 mL), and distilled water (948 mL). • 2. 1× Assay Buffer: Per 10 mL of 1× Assay Buffer, combine 1× Base Buffer (9.96 mL), 1 M DTT (40 uL), and 10% Tween-20 (1 uL) to provide a final concentration of 50 mM Tris-HCl, pH 8, 2 mM MgCl2, 4 mM DTT, 0.001% Tween-20. • 3. 2× Enzyme Solution: Per 10 mL of 2× Enzyme Solution, combine 1× Assay Buffer (9.99 mL) and 3.24 uM EZH2 5 member complex (6.17 uL) to provide a final enzyme concentration of 1 nM. • 4. SPA Bead Solution: Per 1 mL of SPA Bead Solution, combine Streptavidin coated SPA beads (PerkinElmer, Cat# RPNQ0261, 40 mg) and 1× Assay Buffer (1 mL) to provide a working concentration of 40 mg/mL. • 5. 2× Substrate Solution: Per 10 mL of 2× Substrate Solution, combine 40 mg/mL SPA Bead Solution (375 uL), 1 mM biotinylated histone H3K27 peptide (200 uL), 12.5 uM 3H-SAM (240 uL; 1 mCi/mL), 1 mM cold SAM (57 uL), and 1× Assay Buffer (9.13 mL) to provide a final concentration of 0.75 mg/mL SPA Bead Solution, 10 uM biotinylated histone H3K27 peptide, 0.15 uM 3H-SAM (˜12 uCi/mL 3H-SAM), and 2.85 uM cold SAM. • 6. 2.67× Quench Solution: Per 10 mL of 2.67× Quench Solution, combine 1× Assay Buffer (9.73 mL) and 10 mM cold SAM (267 uL) to provide a final concentration of 100 uM cold SAM.
• 1. Stamp 10 nL/well of 1000× Compound to test wells (as noted above). • 2. Stamp 10 nL/well of 100% DMSO to columns 6 & 18 (high and low controls, respectively).
• 1. Dispense 5 uL/well of 1× Assay Buffer to column 18 (low control reactions). • 2. Dispense 5 uL/well of 2× Substrate Solution to columns 1-24 (note: substrate solution should be mixed to ensure homogeneous bead suspension before dispensing into matrix reservoir). • 3. Dispense 5 uL/well of 2× Enzyme Solution to columns 1-17, 19-24. • 4. Incubate the reaction for 60 min at room temperature.
• 1. Dispense 6 uL/well of the 2.67× Quench Solution to columns 1-24. • 2. Seal assay plates and spin for ˜1 min at 500 rpm. • 3. Dark adapt plates in the ViewLux instrument for 15-60 min.
• 1. Read the assay plates on the Viewlux Plate Reader utilizing the 613 nm emission filter or clear filter (300 s exposure). Reagent addition can be done manually or with automated liquid handler.
Percent inhibition was calculated relative to the DMSO control for each compound concentration and the resulting values were fit using standard IC50 fitting parameters within the ABASE data fitting software package.
The IC50 values of <10 nM indicate that the activity of compound was approaching the limit of detection in the assay. Repeating the assay run(s) may result in somewhat different IC50 values.

T1 sequence (Q15910 whole entry): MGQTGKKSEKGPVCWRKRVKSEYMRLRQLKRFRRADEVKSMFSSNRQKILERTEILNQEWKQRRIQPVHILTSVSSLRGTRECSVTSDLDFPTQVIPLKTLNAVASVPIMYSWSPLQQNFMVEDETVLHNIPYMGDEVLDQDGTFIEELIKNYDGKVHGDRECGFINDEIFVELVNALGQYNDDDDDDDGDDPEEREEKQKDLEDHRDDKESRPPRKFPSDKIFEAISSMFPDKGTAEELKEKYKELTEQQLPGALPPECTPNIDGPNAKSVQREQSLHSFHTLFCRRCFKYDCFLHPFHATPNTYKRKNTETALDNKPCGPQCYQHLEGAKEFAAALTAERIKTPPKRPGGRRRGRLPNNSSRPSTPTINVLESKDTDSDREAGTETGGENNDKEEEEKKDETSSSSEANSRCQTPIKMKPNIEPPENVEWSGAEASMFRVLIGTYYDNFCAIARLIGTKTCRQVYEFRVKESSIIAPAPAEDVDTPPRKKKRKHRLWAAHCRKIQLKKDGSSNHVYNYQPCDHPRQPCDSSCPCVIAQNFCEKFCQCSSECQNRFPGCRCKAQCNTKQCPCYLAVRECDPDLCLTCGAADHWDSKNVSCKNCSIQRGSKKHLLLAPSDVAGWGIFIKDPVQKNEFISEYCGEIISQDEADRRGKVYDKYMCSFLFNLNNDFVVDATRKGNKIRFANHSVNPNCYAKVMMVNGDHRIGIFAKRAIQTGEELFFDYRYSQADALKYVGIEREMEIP
T1 sequence (O75530 whole entry partner): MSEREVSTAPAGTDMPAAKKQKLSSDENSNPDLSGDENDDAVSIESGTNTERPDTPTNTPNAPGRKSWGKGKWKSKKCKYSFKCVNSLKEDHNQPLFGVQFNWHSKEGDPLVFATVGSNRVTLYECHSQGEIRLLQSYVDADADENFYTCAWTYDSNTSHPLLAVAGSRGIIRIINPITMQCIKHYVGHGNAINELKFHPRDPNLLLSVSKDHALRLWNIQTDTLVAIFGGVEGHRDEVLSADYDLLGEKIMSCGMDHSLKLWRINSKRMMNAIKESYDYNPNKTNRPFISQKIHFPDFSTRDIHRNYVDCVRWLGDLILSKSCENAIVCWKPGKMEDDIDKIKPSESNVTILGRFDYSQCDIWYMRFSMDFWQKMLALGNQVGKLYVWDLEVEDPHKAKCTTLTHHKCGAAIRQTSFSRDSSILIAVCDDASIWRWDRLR
T1 sequence (Q15022 whole entry partner): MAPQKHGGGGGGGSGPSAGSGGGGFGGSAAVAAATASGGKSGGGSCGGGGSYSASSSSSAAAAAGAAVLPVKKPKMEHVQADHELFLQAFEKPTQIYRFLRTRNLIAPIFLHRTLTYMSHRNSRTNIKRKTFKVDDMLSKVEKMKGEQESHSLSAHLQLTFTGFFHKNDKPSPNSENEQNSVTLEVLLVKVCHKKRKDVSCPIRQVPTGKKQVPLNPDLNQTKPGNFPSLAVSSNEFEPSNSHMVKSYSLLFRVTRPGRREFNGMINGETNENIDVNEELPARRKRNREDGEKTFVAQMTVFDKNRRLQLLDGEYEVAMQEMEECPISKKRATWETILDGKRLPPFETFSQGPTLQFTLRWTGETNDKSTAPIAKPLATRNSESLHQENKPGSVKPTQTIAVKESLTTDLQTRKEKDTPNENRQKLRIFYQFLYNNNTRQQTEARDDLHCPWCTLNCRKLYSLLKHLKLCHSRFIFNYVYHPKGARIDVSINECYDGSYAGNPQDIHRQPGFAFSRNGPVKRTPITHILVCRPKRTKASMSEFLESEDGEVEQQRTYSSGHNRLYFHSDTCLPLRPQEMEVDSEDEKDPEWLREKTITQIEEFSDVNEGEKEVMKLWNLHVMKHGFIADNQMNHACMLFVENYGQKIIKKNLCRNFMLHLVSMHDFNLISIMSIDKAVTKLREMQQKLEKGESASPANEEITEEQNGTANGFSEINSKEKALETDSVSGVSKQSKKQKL
T1 sequence (Q09028 whole entry partner): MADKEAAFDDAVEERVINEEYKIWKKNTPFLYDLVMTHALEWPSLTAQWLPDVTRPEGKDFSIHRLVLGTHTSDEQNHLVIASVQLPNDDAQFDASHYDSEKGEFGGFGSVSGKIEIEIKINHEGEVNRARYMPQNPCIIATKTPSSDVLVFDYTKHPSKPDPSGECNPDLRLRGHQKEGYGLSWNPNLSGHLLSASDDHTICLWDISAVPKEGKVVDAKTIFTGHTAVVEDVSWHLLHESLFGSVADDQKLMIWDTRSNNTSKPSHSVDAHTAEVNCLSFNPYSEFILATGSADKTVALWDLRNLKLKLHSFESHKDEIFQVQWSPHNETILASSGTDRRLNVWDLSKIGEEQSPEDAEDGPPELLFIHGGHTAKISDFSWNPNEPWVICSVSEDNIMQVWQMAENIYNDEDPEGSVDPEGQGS
T1 sequence (Q6ZN18 whole entry partner): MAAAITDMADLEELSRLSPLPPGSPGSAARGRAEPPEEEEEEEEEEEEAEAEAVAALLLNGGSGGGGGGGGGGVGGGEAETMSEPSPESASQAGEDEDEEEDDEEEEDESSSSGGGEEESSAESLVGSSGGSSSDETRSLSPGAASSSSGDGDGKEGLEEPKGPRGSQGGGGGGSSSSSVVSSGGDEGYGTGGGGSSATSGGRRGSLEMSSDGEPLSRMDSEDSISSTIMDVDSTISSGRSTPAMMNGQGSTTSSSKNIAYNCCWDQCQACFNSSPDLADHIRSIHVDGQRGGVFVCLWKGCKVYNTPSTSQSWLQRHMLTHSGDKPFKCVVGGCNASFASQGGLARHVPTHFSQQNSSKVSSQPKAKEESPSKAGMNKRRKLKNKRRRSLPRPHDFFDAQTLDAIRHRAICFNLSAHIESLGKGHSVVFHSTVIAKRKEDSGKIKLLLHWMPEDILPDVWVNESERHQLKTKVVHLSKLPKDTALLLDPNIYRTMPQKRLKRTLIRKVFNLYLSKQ

`CCC(c1scc(C(=O)NCc2c(C)cc(C)[nH]c2=O)c1C)C1CCN(CC(C)(C)F)CC1` (racemic) [Example 6, N-((4,6-Dimethyl-2-oxo-1,2-dihydropyridin-3-yl)methyl)-5-(1-(1-(2-fluoro-2-methylpropyl)piperidin-4-yl)propyl)-4-methylthiophene-3-carboxamide]: the IC50 (in general, the concentration that gives 50% inhibition) was found to be 50 nM. That is a double-digit nanomolar value. Regarding `CCC(c1scc(C(=O)NCc2c(C)cc(C)[nH]c2=O)c1C)C1CCN(CC(F)(F)F)CC1` (racemic) [Example 11, N-((4,6-Dimethyl-2-oxo-1,2-dihydropyridin-3-yl)methyl)-4-methyl-5-(1-(1-(2,2,2-trifluoroethyl)piperidin-4-yl)propyl)thiophene-3-carboxamide], the IC50 was 20 nM. Compound `CCC(c1scc(C(=O)NCc2c(C)cc(C)[nH]c2=O)c1C)C1CCN(CC(F)F)CC1` (racemic) [Example 14, 5-(1-(1-(2,2-Difluoroethyl)piperidin-4-yl)propyl)-N-((4,6-dimethyl-2-oxo-1,2-dihydropyridin-3-yl)methyl)-4-methylthiophene-3-carboxamide] gave an IC50 of 40 nM. This IC50 is about 2-fold higher than that of the compound before. The result for `CCC(=C1CCN(CC(C)(F)F)CC1)c1scc(C(=O)NCc2c(C)cc(C)[nH]c2=O)c1C` [Example 1, 5-(1-(1-(2,2-Difluoropropyl)piperidin-4-ylidene)propyl)-N-((4,6-dimethyl-2-oxo-1,2-dihydropyridin-3-yl)methyl)-4-methylthiophene-3-carboxamide] reads 16 nM. `CCC(=C1CCN(CC(C)(C)F)CC1)c1scc(C(=O)NCc2c(C)cc(C)[nH]c2=O)c1C` [Example 2, N-((4,6-Dimethyl-2-oxo-1,2-dihydropyridin-3-yl)methyl)-5-(1-(1-(2-fluoro-2-methylpropyl)piperidin-4-ylidene)propyl)-4-methylthiophene-3-carboxamide]: the IC50 is at most 10 nM.

In turn, `CCC(=C1CCN(CC(F)(F)F)CC1)c1scc(C(=O)NCc2c(C)cc(C)[nH]c2=O)c1C` [Example 3, N-((4,6-Dimethyl-2-oxo-1,2-dihydropyridin-3-yl)methyl)-4-methyl-5-(1-(1-(2,2,2-trifluoroethyl)piperidin-4-ylidene)propyl)thiophene-3-carboxamide] had an IC50 of at most 10 nM.

The compound `CC[C@@H](c1scc(C(=O)NCc2c(C)cc(C)[nH]c2=O)c1C)C1CCN(CC(C)(F)F)CC1` [Example 4, (R)-5-(1-(1-(2,2-Difluoropropyl)piperidin-4-yl)propyl)-N-((4,6-dimethyl-2-oxo-1,2-dihydropyridin-3-yl)methyl)-4-methylthiophene-3-carboxamide] had an IC50 of 20 nM.

In turn, `CC[C@H](c1scc(C(=O)NCc2c(C)cc(C)[nH]c2=O)c1C)C1CCN(CC(C)(F)F)CC1` [Example 5, (S)-5-(1-(1-(2,2-Difluoropropyl)piperidin-4-yl)propyl)-N-((4,6-dimethyl-2-oxo-1,2-dihydropyridin-3-yl)methyl)-4-methylthiophene-3-carboxamide] showed an IC50 of 501 nM.

In turn, `CCC(=C1CCN(N(C)C)CC1)c1scc(C(=O)NCc2c(C)cc(C)[nH]c2=O)c1C` [Example 7, N-((4,6-Dimethyl-2-oxo-1,2-dihydropyridin-3-yl)methyl)-5-(1-(1-(dimethylamino)piperidin-4-ylidene)propyl)-4-methylthiophene-3-carboxamide] gave an IC50 of 20 nM.

Turning to `CCC(=C1CCN(O)CC1)c1scc(C(=O)NCc2c(C)cc(C)[nH]c2=O)c1C` [Example 8, N-((4,6-Dimethyl-2-oxo-1,2-dihydropyridin-3-yl)methyl)-5-(1-(1-hydroxypiperidin-4-ylidene)propyl)-4-methylthiophene-3-carboxamide], half-maximal inhibition (IC50) was put at 16 nM. The result for `CCC(c1sc2c(c1C)C(=O)N(Cc1c(C)cc(C)[nH]c1=O)CC2)N1CCC(N(C)C)CC1` (stereo not shown) [Example 9] reads 50 nM; that for `CCC(=C1CCC(O)CC1)c1scc(C(=O)NCc2c(C)cc(C)[nH]c2=O)c1C` (stereo not shown) [Example 10, N-((4,6-Dimethyl-2-oxo-1,2-dihydropyridin-3-yl)methyl)-5-(1-(4-hydroxycyclohexylidene)propyl)-4-methylthiophene-3-carboxamide], at most 10 nM. The result for `CCC(=C1CCN(Cc2ncco2)CC1)c1scc(C(=O)NCc2c(C)cc(C)[nH]c2=O)c1C` [Example 12, N-((4,6-Dimethyl-2-oxo-1,2-dihydropyridin-3-yl)methyl)-4-methyl-5-(1-(1-(oxazol-2-ylmethyl)piperidin-4-ylidene)propyl)thiophene-3-carboxamide] reads at most 10 nM.

Compound `CCC(=C1CCN(c2ncccn2)CC1)c1scc(C(=O)NCc2c(C)cc(C)[nH]c2=O)c1C` [Example 13, N-((4,6-Dimethyl-2-oxo-1,2-dihydropyridin-3-yl)methyl)-4-methyl-5-(1-(1-(pyrimidin-2-yl)piperidin-4-ylidene)propyl)thiophene-3-carboxamide] yielded an IC50 of 13 nM.

`CCC(=C1CCN(/C(=N/C#N)NC)CC1)c1scc(C(=O)NCc2c(C)cc(C)[nH]c2=O)c1C` [Example 15, 5-(1-(1-(N′-Cyano-N-methylcarbamimidoyl)piperidin-4-ylidene)propyl)-N-((4,6-dimethyl-2-oxo-1,2-dihydropyridin-3-yl)methyl)-4-methylthiophene-3-carboxamide] had an IC50 of at most 10 nM. As for `CCC(c1sc2c(c1C)C(=O)N(Cc1c(C)cc(C)[nH]c1=O)CC2)C1CCN(CC(C)(F)F)CC1` (stereo not shown) [Example 16, 2-(1-(1-(2,2-Difluoropropyl)piperidin-4-yl)propyl)-5-((4,6-dimethyl-2-oxo-1,2-dihydropyridin-3-yl)methyl)-3-methyl-6,7-dihydrothieno[3,2-c]pyridin-4(5H)-one], 100 nM corresponded to half-maximal inhibition (IC50).

In turn, `CCC(c1sc2c(c1C)C(=O)N(Cc1c(C)cc(C)[nH]c1=O)CC2)C1CCN(CC(C)F)CC1` (stereo not shown) [Example 17, 5-((4,6-Dimethyl-2-oxo-1,2-dihydropyridin-3-yl)methyl)-2-(1-(1-(2-fluoropropyl)piperidin-4-yl)propyl)-3-methyl-6,7-dihydrothieno[3,2-c]pyridin-4(5H)-one] gave an IC50 of 100 nM. Then `CCC(c1sc2c(c1C)C(=O)N(Cc1c(C)cc(C)[nH]c1=O)CC2)C1CCN(/C(=N\C#N)NC)CC1` (stereo not shown) [Example 18, N′-Cyano-4-(1-(5-((4,6-dimethyl-2-oxo-1,2-dihydropyridin-3-yl)methyl)-3-methyl-4-oxo-4,5,6,7-tetrahydrothieno[3,2-c]pyridin-2-yl)propyl)-N-methylpiperidine-1-carboximidamide], with at most 10 nM; and `CCC(c1scc(C(=O)NCc2c(C)cc(C)[nH]c2=O)c1C)C1CCN(/C(=N\C#N)NC)CC1` (stereo not shown) [Example 19, 5-(1-(1-(N′-Cyano-N-methylcarbamimidoyl)piperidin-4-yl)propyl)-N-((4,6-dimethyl-2-oxo-1,2-dihydropyridin-3-yl)methyl)-4-methylthiophene-3-carboxamide], with 316 nM.
